# Laboratory results reported in ChEMBL document CHEMBL1944579, “Discovery of a potent and orally bioavailable benzolactam-derived inhibitor of Polo-like kinase 1 (MLN0905)” (J Med Chem, 2012).
# Key:
# [1] = Drug uptake in tumor of nude mouse xenografted with human HT-29 cells at 50 mg/kg, po after 24 hrs; format: ADME, organism-based, Neoplasm; parameters: dose 50 mg/kg, route oral; details: read-out: Drug uptake
# [2] = Drug uptake in tumor of nude mouse xenografted with human HT-29 cells at 50 mg/kg, po after 48 hrs; format: ADME, organism-based, Neoplasm; parameters: dose 50 mg/kg, route oral; details: read-out: Drug uptake
# [3] = Drug uptake in tumor of nude mouse xenografted with human HT-29 cells at 50 mg/kg, po after 72 hrs; format: ADME, organism-based, Neoplasm; parameters: dose 50 mg/kg, route oral; details: read-out: Drug uptake
# [4] = Volume of distribution at steady state in Sprague-Dawley rat at 1 mg/kg, iv; format: ADME, organism-based; parameters: dose 1 mg/kg, route intravenous; details: in vivo, read-out: Vdss
# [5] = Half life in Sprague-Dawley rat at 1 mg/kg, iv; format: ADME, organism-based; parameters: dose 1 mg/kg, route intravenous; details: in vivo
# [6] = Plasma clearance in nude NCR mouse at 2 mg/kg, iv; format: ADME, organism-based; parameters: dose 2 mg/kg, route intravenous
# [7] = Volume of distribution at steady state in nude NCR mouse at 2 mg/kg, iv; format: ADME, organism-based; parameters: dose 2 mg/kg, route intravenous; details: in vivo, read-out: Vdss
# [8] = Half life in nude NCR mouse at 2 mg/kg, iv; format: ADME, organism-based; parameters: dose 2 mg/kg, route intravenous; details: in vivo
# [9] = Cmax in Sprague-Dawley rat at 5 mg/kg, po; format: ADME, organism-based; parameters: dose 5 mg/kg, route oral; details: in vivo
# [10] = Tmax in Sprague-Dawley rat at 5 mg/kg, po; format: ADME, organism-based; parameters: dose 5 mg/kg, route oral; details: in vivo
# [11] = Oral bioavailability in Sprague-Dawley rat at 5 mg/kg; format: ADME, organism-based; details: in vivo
# [12] = Cmax in nude NCR mouse at 12.5 mg/kg, po; format: ADME, organism-based; parameters: dose 12.5 mg/kg, route oral; details: in vivo
# [13] = Tmax in nude NCR mouse at 12.5 mg/kg, po; format: ADME, organism-based; parameters: dose 12.5 mg/kg, route oral; details: in vivo
# [14] = Oral bioavailability in nude NCR mouse at 12.5 mg/kg; format: ADME, organism-based; details: in vivo
# [15] = Drug uptake in tumor of nude mouse xenografted with human HT-29 cells at 25 mg/kg, po after 24 hrs; format: ADME, organism-based, Neoplasm; parameters: dose 25 mg/kg, route oral; details: read-out: Drug uptake
# [16] = Drug uptake in tumor of nude mouse xenografted with human HT-29 cells at 25 mg/kg, po after 48 hrs; format: ADME, organism-based, Neoplasm; parameters: dose 25 mg/kg, route oral; details: read-out: Drug uptake
# [17] = Drug uptake in tumor of nude mouse xenografted with human HT-29 cells at 25 mg/kg, po after 72 hrs; format: ADME, organism-based, Neoplasm; parameters: dose 25 mg/kg, route oral; details: read-out: Drug uptake
# [18] = Drug uptake in tumor of nude mouse xenografted with human HT-29 cells at 12.5 mg/kg, po after 24 hrs; format: ADME, organism-based, Neoplasm; parameters: dose 12.5 mg/kg, route oral; details: read-out: Drug uptake
# [19] = Drug uptake in tumor of nude mouse xenografted with human HT-29 cells at 12.5 mg/kg, po after 48 hrs; format: ADME, organism-based, Neoplasm; parameters: dose 12.5 mg/kg, route oral; details: read-out: Drug uptake
# [20] = Drug uptake in tumor of nude mouse xenografted with human HT-29 cells at 12.5 mg/kg, po after 72 hrs; format: ADME, organism-based, Neoplasm; parameters: dose 12.5 mg/kg, route oral; details: read-out: Drug uptake
# [21] = Drug uptake in tumor of nude mouse xenografted with human HT-29 cells at 6.25 mg/kg, po after 24 hrs; format: ADME, organism-based, Neoplasm; parameters: dose 6.25 mg/kg, route oral; details: read-out: Drug uptake
# [22] = Drug uptake in tumor of nude mouse xenografted with human HT-29 cells at 6.25 mg/kg, po after 48 hrs; format: ADME, organism-based, Neoplasm; parameters: dose 6.25 mg/kg, route oral; details: read-out: Drug uptake
# [23] = Drug uptake in tumor of nude mouse xenografted with human HT-29 cells at 6.25 mg/kg, po after 72 hrs; format: ADME, organism-based, Neoplasm; parameters: dose 6.25 mg/kg, route oral; details: read-out: Drug uptake
# [24] = Toxicity in po dosed nude mouse administered once daily; format: organism-based; details: in vivo
# [25] = Toxicity in po dosed nude mouse administered qd for 1 day in a week; format: organism-based; details: in vivo
# [26] = Toxicity in po dosed nude mouse administered qd for 3 days in a week; format: organism-based; details: in vivo
# [27] = Plasma clearance in Sprague-Dawley rat at 1 mg/kg, iv; format: ADME, organism-based; parameters: dose 1 mg/kg, route intravenous
structure (smiles),measurement,setting,value
Cc1ncc(CCCN(C)C)cc1Nc1ncc2c(n1)-c1ccc(Cl)cc1NC(=S)C2,concentration at 24 h,[1],1080 nM
same,concentration at 48 h,[2],332 nM
same,concentration at 72 h,[3],60.3 nM
Cc1ncc(CCCN(C)C)cc1Nc1ncc2c(n1)-c1ccc(C(F)(F)F)cc1NC(=S)C2,Vd,[4],10.2 L/kg
same,half-life,[5],282 min
same,clearance,[6],41.7 mL/min/kg
same,Vd,[7],6.2 L/kg
same,half-life,[8],204 min
same,Cmax,[9],335 nM
same,Tmax,[10],4 h
same,bioavailability,[11],72%
same,Cmax,[12],720 nM
same,Tmax,[13],4 h
same,bioavailability,[14],45%
same,concentration at 24 h,[15],920 nM
same,concentration at 48 h,[16],369 nM
same,concentration at 72 h,[17],163 nM
same,concentration at 24 h,[18],339 nM
same,concentration at 48 h,[19],353 nM
same,concentration at 72 h,[20],139 nM
same,concentration at 24 h,[21],239 nM
same,concentration at 48 h,[22],121 nM
same,concentration at 72 h,[23],98 nM
same,MTD,[24],12.5 mg/kg
same,MTD at 24 h,[25],50 mg/kg
same,MTD at 72 h,[26],25 mg/kg
same,concentration at 24 h,[1],1470 nM
same,concentration at 48 h,[2],476 nM
same,concentration at 72 h,[3],376 nM
same,clearance,[27],38.3 mL/min/kg
